Molecules are shown by their SMILES. Where a name gives a salt, the structure may show the parent alone. Read-outs that look alike come from different tables or passages of the source.

The experiment deals with STAT6. As to the kind of experiment: Inhibitory test on STAT6 activation: IL-4-induced alkali phosphatase STAT6 reporter in 293 cells stably expressing the STAT6 gene and STAT6 reporter gene. The following applies: HEK293, 1 ng/ml human recombinant IL-4, 16 hours, 293 cells with STAT6 reporter, read-out: Inhibitory activity IC50 (concentration at which the alkali phosphatase activity induced by IL-4 was inhibited by 50%). It counts as cell-based. The gist of the method: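 HEK293 clone stably carrying STAT6 and a STAT6-element-driven alkaline phosphatase reporter, 5000 cells/well. Compound (DMSO ≤0.1%) plus 1 ng/ml human IL-4 for 16 hours. Supernatant heat-treated 65° C. 10 minutes, then alkaline phosphatase measured fluorometrically in carbonate buffer.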
(Reporter assays use an easily measured gene product as a stand-in for the process of interest.)

On to `O=C(Nc1nccs1)c1ccc(-c2ncnc3ccc(-c4cn[nH]c4)cc23)cc1F` [Example 872, 2-Fluoro-N-thiazol-2-yl-4-[6-(1H-pyrazol-4-yl)quinazolin-4-yl]benzamide trihydrochloride], for which, for the setting “Table 2”, the IC50 was 10 to 100 nM.

Turning to `c1ccc(-c2cnc3ccc(-c4c[nH]nc4-c4ccc(N5CCOCC5)cc4)cn23)nc1` [Example 539, 6-[3-(4-Morpholine-4-ylphenyl)-1H-pyrazol-4-yl]-3-(pyridin-2-yl)imidazo[1,2-a]pyridine], where the note is “Table 1”, the IC50 was under 10 nM.

In the case of `COc1ccc(-c2cnc3ccc(-c4c[nH]nc4-c4ccc(F)cc4)cn23)cc1F` [Example 622, 3-(3-Fluoro-4-methoxyphenyl)-6-[3-(4-fluorophenyl)-1H-4-pyrazolyl]imidazo[1,2-a]pyridine hydrochloride], the IC50 (Table 1) is under 10 nM.

`CS(=O)(=O)c1ccc(N2CCN(c3ncnc4ccc(-c5cn[nH]c5)cc34)CC2)s1` [Example 923, 4-[4-(5-Methylsulfonylthiophen-2-yl)piperazin-1-yl]-6-(1H-pyrazol-4-yl)quinazoline trihydrochloride]: the IC50 (Table 2) was under 10 nM.

In the case of `CS(=O)(=O)c1ccc(-c2ncnc3ccc(-c4c[nH]nc4CNc4ccc(F)cc4F)cc23)s1` [Example 906, 2,4-Difluorophenyl{4-[4-(5-methylsulfonylthiophen-2-yl)quinazolin-6-yl]-1H-pyrazol-3-ylmethyl} amine], the IC50 (Table 2) is 100 to 1000 nM.

As for `Cc1cc(NC(=O)c2ccc(-c3cnc4ccc(-c5cn[nH]c5)cn34)cc2F)on1` [Example 688, N1-(3-Methylisoxazol-5-yl)-2-fluoro-4-[6-(1H-4-pyrazolyl)-imidazo[1,2-a]pyridin-3-yl]benzamide dihydrochloride], the IC50 (Table 1) was under 10 nM.

In the case of `CS(=O)(=O)c1cnc(-c2ncnc3ccc(-c4c[nH]nc4-c4ccc(F)cc4)cc23)s1` [Example 897, 6-[3-(4-Fluorophenyl)-1H-pyrazol-4-yl]-4-(5-methylsulfonylthiazol-2-yl) quinazoline], the IC50 (Table 2) was under 10 nM.

In the case of `Cc1csc(NC(=O)c2ccc(-c3cnc4ccc(-c5cn[nH]c5)cn34)cc2)n1` [Example 629, N1-(4-Methyl-1,3-thiazol-2-yl)-4-[6-(1H-4-pyrazolyl)-imidazo[1,2-a]pyridin-3-yl]benzamide dihydrochloride], the IC50 (Table 1) was under 10 nM.

`Cc1n[nH]cc1-c1ccc2ncc(-c3ccc(S(=O)(=O)N(C)c4ccc(Cl)cc4)cc3)n2c1` [Example 632, N1-(4-Chlorophenyl)-N1-methyl-4-[6-(3-methyl-1H-4-pyrazolyl)imidazo[1,2-a]pyridin-3-yl]-1-benzene sulfonamide]: the IC50 (Table 1) lay within 10 to 100 nM.

As to `CSc1ccc(-c2n[nH]cc2-c2ccc3ncnc(-c4ccc(S(C)(=O)=O)s4)c3c2)cc1` [Example 895, 6-[3-(4-Methylsulfanylphenyl)-1H-pyrazol-4-yl]-4-(5-methylsulfonylthiophen-2-yl) quinazoline], the IC50 (Table 2) is under 10 nM.

Regarding `O=C(Nc1ccc(Cl)cn1)c1ccc(-c2cnc3ccc(-c4cn[nH]c4)cn23)cc1F` [Example 680, N1-(5-Chloro-2-pyridyl)-2-fluoro-4-[6-(1H-4-pyrazolyl)-imidazo[1,2-a]pyridin-3-yl]benzamide dihydrochloride], the IC50 (Table 1) is under 10 nM.

As for `COc1ccc(-c2n[nH]cc2-c2ccc3ncc(-c4noc(C5CC5)n4)n3c2)c(F)c1` [Example 580, 3-(5-Cyclopropyl-[1,2,4]oxadiazol-3-yl)-6-[3-(2-fluoro-4-methoxyphenyl)-1H-4-pyrazolyl]-imidazo[1,2-a]pyridine trihydrochloride], the IC50 (Table 1) is under 10 nM.

Turning to `NC(=O)[C@@H]1CCCN1Cc1ccc(-c2cnc3ccc(-c4c[nH]nc4-c4ccc(F)cc4)cn23)s1` [Example 92, (2S)-1-[(5-{6-[3-(4-Fluorophenyl)-1H-4-pyrazolyl]-imidazo-[1,2-a]pyridin-3-yl}-2-thienyl)methyl]tetrahydro-1H-2-pyrrole carboxyamide trihydrochloride], the IC50 (Table 1) was under 10 nM.

For the molecule `COc1nnc(-c2ncnc3ccc(-c4c[nH]nc4-c4c(F)cccc4F)cc23)o1` [Example 909, 6-[3-(2,6-Difluorophenyl)-1H-pyrazol-4-yl]-4-(5-methoxy|[1,3,4]oxadiazol-2-yl) quinazoline], the IC50 (Table 2) was in the range of 10 to 100 nM.

Take `CNS(=O)(=O)c1cccc(N2CCN(c3ncnc4ccc(-c5cn[nH]c5)cc34)CC2)c1` [Example 952, N-Methyl-3-{4-[6-(1H-pyrazol-4-yl)quinazolin-4-yl]piperazin-1-yl}benzene sulfonamide tri-trifluoroacetate]: the IC50 (Table 2) was under 10 nM.

As for `Cc1cnn(-c2ncnc3ccc(-c4c[nH]nc4-c4c(F)cccc4F)cc23)c1` [Example 913, 6-[3-(2,6-Difluorophenyl)-1H-pyrazol-4-yl]-4-(4-methylpyrazol-1-yl) quinazoline], where the note is “Table 2”, the IC50 was under 10 nM.

On to `COc1ccc(-c2n[nH]cc2-c2ccc3ncnc(-c4ccc(S(C)(=O)=O)s4)c3c2)cc1OC` [Example 261, 6-[3-(3,4-Dimethoxyphenyl)-1H-4-pyrazolyl]-4-[5-(methylsulfonyl)-2-thienyl]quinazoline dihydrochloride], for which, for the setting “Table 1”, the IC50 lay in the range of 100 to 1000 nM.

In the case of `N#Cc1cc(N2CCN(c3ncnc4ccc(-c5cn[nH]c5)cc34)CC2)ccc1F` [Example 1007, 2-Fluoro-5-{4-[6-(1H-4-pyrazolyl)-4-quinazolinyl]piperazin-1-yl}benzonitrile hydrochloride], the IC50 (Table 2) lay within 10 to 100 nM.

As to `Fc1ccc(-c2n[nH]cc2-c2ccc3ncc(-c4nnc(C5CC5)s4)n3c2)c(F)c1` [Example 556, 3-(5-Cyclopropyl[1,3,4]thiadiazol-2-yl)6-[3-(2,4-difluorophenyl)-1H-pyrazol-4-yl]imidazo[1,2-a]pyridine], the IC50 (Table 1) was under 10 nM.

As for `O=C(Nc1nc(C2CC2)cs1)c1ccc(-c2cnc3ccc(-c4cn[nH]c4)cn23)cc1F` [Example 652, N1-(4-Cyclopropyl-1,3-thiazol-2-yl)-2-fluoro-4-[6-(1H-4-pyrazolyl)imidazo[1,2-a]pyridin-3-yl]benzamide dihydrochloride], the IC50 (Table 1) is under 10 nM.

Turning to `COc1nnc(-c2cnc3ccc(-c4c[nH]nc4-c4ccc(F)cc4F)cn23)s1` [Example 562, 6-[3-(2,4-Fluorophenyl)-1H-pyrazol-4-yl]-3-(5-methoxy[1,3,4]thiadiazol-2-yl)imidazo[1,2-a]pyridine], the IC50 (Table 1) was under 10 nM.

For `CS(=O)(=O)c1cccc(N2CCN(c3ncnc4ccc(-c5cn[nH]c5)cc34)CC2)c1` [Example 946, 4-[4-(3-Methylsulfonylphenyl)piperazin-1-yl]-6-(1H-pyrazol-4-yl)quinazoline tri-trifluoroacetate], where the note is “Table 2”, the IC50 was under 10 nM.

In the case of `O=C(Nc1ccc(-c2cnc3ccc(-c4cn[nH]c4)cn23)cc1F)c1ccc(F)cc1` [Example 705, N1-{2-Fluoro-4-[6-(1H-4-pyrazolyl)imidazo[1,2-a]pyridin-3-yl]phenyl}-4-fluorobenzamide hydrochloride], the IC50 (Table 2) is 10 to 100 nM.

As to `CC(C)=Cc1nc(-c2cnc3ccc(-c4c[nH]nc4-c4ccccc4F)cn23)no1` [Example 592], the IC50 (Table 1) is under 10 nM.

For the molecule `Fc1ccc(-c2n[nH]cc2-c2ccc3ncnc(-c4nnc(C5CC5)s4)c3c2)c(F)c1` [Example 908, 4-(5-Cyclopropyl[1,3,4]thiadiazol-2-yl)-6-[3-(2,4-difluorophenyl)-1H-pyrazol-4-yl] quinazoline], the IC50 (Table 2) is under 10 nM.

Take `Cc1n[nH]cc1-c1ccc2ncnc(N3CCC(Oc4cccc(C#N)c4)CC3)c2c1` [Example 876, 3-{1-[6-(3-Methyl-1H-pyrazol-4-yl)quinazolin-4-yl]piperidin-4-yloxy} benzonitrile trihydrochloride]: the IC50 (Table 2) was in the range of 10 to 100 nM.

`CSc1nnc(-c2cnc3ccc(-c4c[nH]nc4-c4ccc(F)cc4)cn23)o1` [Example 555, 6-[3-(4-Fluorophenyl)-1H-pyrazol-4-yl]-3-(5-methylsulfanyl[1,3,4]oxadiazol-2-yl)imidazo[1,2-a]pyridine]: the IC50 (Table 1) is under 10 nM.

As for `O=C(Nc1cccc(N2CCN(c3ncnc4ccc(-c5cn[nH]c5)cc34)CC2)c1)C1(c2ccccc2)CC1` [Example 978, 1-Phenylcyclopropanecarboxylic acid (3-{4-[6-(1H-pyrazol-4-yl)quinazolin-4-yl]piperazin-1-yl}phenyl)amide tri-trifluoroacetate], the IC50 (Table 2) is under 10 nM.

For `Cc1cn(-c2ncnc3ccc(-c4c[nH]nc4-c4c(F)cccc4F)cc23)cn1` [Example 914, 6-[3-(2,6-Difluorophenyl)-1H-pyrazol-4-yl]-4-(4-methylimidazol-1-yl) quinazoline], the IC50 (Table 2) was under 10 nM.

As to `CS(=O)(=O)c1ccc(-c2ncnc3ccc(-c4c[nH]nc4-c4ccc(Cl)cc4F)cc23)s1` [Example 894, 6-[3-(4-Chloro-2-fluorophenyl)-1H-pyrazol-4-yl]-4-(5-methylsulfonylthiophen-2-yl) quinazoline], the IC50 (Table 2) was under 10 nM.

Take `CS(=O)(=O)c1ccc(-c2ncnc3ccc(-c4c[nH]nc4COc4ccc(F)cc4F)cc23)s1` [Example 905, 6-[3-(2,4-Difluorophenoxymethyl)-1H-pyrazol-4-yl]-4-(5-methylsulfonylthiophen-2-yl) quinazoline]: for the setting “Table 2”, the IC50 lay within 100 to 1000 nM.

Take `CS(=O)(=O)c1ccc(-c2ncnc3ccc(-c4c[nH]nc4-c4ccc(N5CCOCC5)cc4)cc23)s1` [Example 887, 4-(5-Methylsulfonylthiophen-2-yl)-6-[3-(4-morpholin-4-ylphenyl)-1H-pyrazol-4-yl] quinazoline]: where the note is “Table 2”, the IC50 is 10 to 100 nM.

As for `NS(=O)(=O)c1ccc(NC(=O)c2ccc(-c3cnc4ccc(-c5cn[nH]c5)cn34)cc2F)cc1` [Example 700, N1-[4-(Aminosulfonyl)phenyl]-2-fluoro-4-[6-(1H-4-pyrazolyl)imidazo[1,2-a]pyridin-3-yl]benzamide hydrochloride], under “Table 2”, the IC50 was 10 to 100 nM.

Values taken from patent publication US7074801B1, “Nitrogen-containing condensed cyclic compound having a pyrazolyl group as a substituent group and pharmaceutical composition thereof” (Eisai Co., Ltd., priority 2001, dated 2006).
